This is an account of results in patent publication EP4667465A1, “SALT OF BENZO-NITROGEN HETEROAROMATIC RING DERIVATIVE, CRYSTALLINE FORM, AND PHARMACEUTICAL USE THEREOF” (Haisco Pharmaceutical Group Co., Ltd., priority 2023, dated 2024).

The subject of one series is C3a level. The note with it: in words; disclosed in PCT/CN 2022/113216; cited from earlier work.
A further series addresses complement factor B (Homo sapiens, UniProt P00751). The note with it: in words; disclosed in PCT/CN 2022/113216; cited from earlier work.
The nature of another series: in vitro. The note with it: human, Caco-2, pH 7.4.
A short description of series [1]: Pharmacokinetic test in rats. In kind it is in vivo, SD rats.
Protocol: Experimental objective: in this experiment, a single dose of the test substance was administered to SD rats intravenously and intragastrically, and the concentration of the test substance in plasma of the rats was measured to evaluate the pharmacokinetic characteristics of the test substance in the rats. Experimental animals: male SD rats, 200-250 g, 6-8 weeks old, 6 rats/compound, purchased from Chengdu Dossy Experimental Animals Co., Ltd. Experimental method: on the day of the experiment, 6 SD rats were randomly grouped according to their body weights. […] Sampling: before and after the administration, 0.15 mL of blood was taken from the orbits under isoflurane anesthesia and placed in an EDTAK2 centrifuge tube. Centrifugation was carried out at 5000 rpm at 4°C for 10 min, and the plasma was collected. The plasma collection time points for IV&PO groups were 0, 5 min, 15 min, 30 min, 1 h, 2 h, 4 h, 6 h, 8 h, and 24 h. Before analysis and detection, all samples were stored at -60°C. The samples were analyzed quantitatively by LC-MS/MS.
Series [2] can be described thus: Pharmacokinetic test in monkeys. In kind it is in vivo, cynomolgus monkeys. Particulars: compared with the trifluoroacetate of LNP023, in words.
Protocol: Experimental objective: in this experiment, a single dose of test substance was administered to cynomolgus monkeys intravenously and intragastrically, and the concentration of the test substance in plasma of the monkeys was measured to evaluate the pharmacokinetic characteristics of the test substance in the monkeys.
Experimental animals: male cynomolgus monkeys, 3-5 kg, 3-6 years old, 6 monkeys/compound, purchased from Suzhou Xishan Biotechnology Co., Ltd.
Experimental method: on the day of the experiment, 6 monkeys were randomly grouped according to their body weights. The cynomolgus monkeys were fasted with water available for 14-18 h one day before the administration, and were fed 4 h after the administration.
Sampling: before and after the administration, 1.0 mL of blood was taken from the limb veins and placed in an EDTAK2 centrifuge tube. Centrifugation was carried out at 5000 rpm at 4°C for 10 min, and the plasma was collected.
The plasma collection time points for IV&PO groups were 0, 5 min, 15 min, 30 min, 1 h, 2 h, 4 h, 6 h, 8 h, 10 h, 12 h, and 24 h.
Before analysis and detection, all samples were stored at -60°C. The samples were analyzed quantitatively by LC-MS/MS.
The test system of the next series is Caco-2 cells. The note with it: Caco2, compared with the trifluoroacetate of LNP023; in words.
The nature of series [3]: Hygroscopicity (sorption isotherm curve). The class given is physicochemical. The note with it: at 80% RH.
Description: According to the description of the hygroscopicity characteristics and the definition of hygroscopic weight gain in the Chinese Pharmacopoeia 2020 Edition, Volume IV, General Chapter 9103: Guidelines for Hygroscopicity Trials for Pharmaceuticals, • deliquescence: absorbing enough moisture to form a liquid; • extremely hygroscopic: a hygroscopic weight gain of not less than 15%; • hygroscopic: a hygroscopic weight gain of less than 15% but no less than 2%; • slightly hygroscopic: a hygroscopic weight gain of less than 2% but no less than 0.2%; and • non-hygroscopic or practically non-hygroscopic: a hygroscopic weight gain of less than 0.2%.
A short description of series [4]: Stability of the crystalline form (purity under accelerated, intermediate and long-term storage). The class given is physicochemical.
Where [5] appears, read: in rats, compared with LNP023, in words.
Where [6] appears, read: male, rat, po, SD rats, plasma, i.g. (10 mg/kg).

Structures are written as SMILES.

Sequence of complement factor B (P00751 26-764): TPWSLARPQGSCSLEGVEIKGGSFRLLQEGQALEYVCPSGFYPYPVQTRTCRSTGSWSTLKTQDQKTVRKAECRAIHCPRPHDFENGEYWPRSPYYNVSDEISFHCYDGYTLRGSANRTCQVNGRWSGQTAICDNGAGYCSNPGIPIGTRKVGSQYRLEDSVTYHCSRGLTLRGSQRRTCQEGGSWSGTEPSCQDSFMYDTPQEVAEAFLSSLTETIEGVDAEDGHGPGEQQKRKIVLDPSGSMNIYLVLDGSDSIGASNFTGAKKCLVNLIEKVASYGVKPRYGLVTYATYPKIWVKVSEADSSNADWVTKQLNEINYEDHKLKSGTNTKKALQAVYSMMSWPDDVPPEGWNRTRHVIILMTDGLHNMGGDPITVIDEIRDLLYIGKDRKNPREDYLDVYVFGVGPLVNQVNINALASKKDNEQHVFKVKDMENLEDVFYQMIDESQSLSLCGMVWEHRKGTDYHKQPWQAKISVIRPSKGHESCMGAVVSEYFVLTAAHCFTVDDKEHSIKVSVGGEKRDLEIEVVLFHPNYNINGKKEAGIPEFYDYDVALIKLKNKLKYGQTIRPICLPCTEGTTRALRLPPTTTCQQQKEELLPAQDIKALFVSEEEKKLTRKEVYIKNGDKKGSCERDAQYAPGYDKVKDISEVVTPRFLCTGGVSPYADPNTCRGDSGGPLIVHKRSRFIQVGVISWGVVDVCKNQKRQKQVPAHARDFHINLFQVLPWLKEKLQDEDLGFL
Protocol for Caco-2 cells: (§1) In the experiment, a monolayer of Caco-2 cells was used, and incubated in triplicate in a 96-well Transwell plate. A transport buffer solution (HBSS, 10 mM HEPES, pH 7.4 ± 0.05) containing the compound of the present invention (2 µM) or the control compound digoxin (10 µM), nadolol (2 µM) or metoprolol (2 µM) was added to the administration end hole on the apical side or basal side. A DMSO-containing transport buffer solution was added to the corresponding receiving end hole. After incubation for 2 hours at 37°C ± 1°C, the cell plate was removed, and an appropriate amount of samples was taken from both the apical side and basal side and transferred to a new 96-well plate. Subsequently, acetonitrile containing an internal standard was added to precipitate the protein. The samples were analyzed using LC MS/MS, and the concentrations of the compound of the present invention and the control compound were determined. Concentration data were used to calculate apparent permeability coefficients for transport from the apical side to the basal side, and from the basal side to the apical side of the cell monolayer, and thus to calculate the efflux ratio. The integrity of the cell monolayer after 2 hours of incubation was evaluated by leakage of Lucifer Yellow.
Protocol for in vitro: as §1

Turning to `[2H]C([2H])([2H])Oc1cc(C)c2[nH]ccc2c1CN1CC[C@@H](C2CC2)C[C@H]1c1ccc(C(=O)O)cc1` [compound 1, 4-((2S,4R)-4-cyclopropyl-1-((5-(methoxy-d3)-7-methyl-1H-indol-4-yl)methyl)piperidin-2-yl)benzoic acid], in the series with C3a level, the “inhibition rate of C3a level in vivo” value is “good”. In addition, on complement factor B, the “inhibitory activity against complement factor B” value was “good”.

As usually defined, the Papp A→B is how fast a substance crosses the layer from the apical side. Read a low Papp A→B as poor permeation. The Papp B→A is the apparent permeability from the basolateral to the apical side of a cell layer. As a reminder, the bioavailability is the share of a dose that reaches the circulation, judged against a reference dose that is usually intravenous. A lower bioavailability goes with poor availability. With `[2H]C([2H])([2H])Oc1cc(C)c2[nH]ccc2c1CN1CC[C@@H](C2CC2)C[C@H]1c1ccc(C(=O)O)cc1` [Trifluoroacetate of compound 1, 4-((2S,4R)-4-cyclopropyl-1-((5-(methoxy-d3)-7-methyl-1H-indol-4-yl)methyl)piperidin-2-yl)benzoic acid], in the series “in vitro”, the Papp A→B at 2 h, 2 µM stood at 1.77 ×10⁻⁶ cm/s and the Papp B→A at 2 h, 2 µM came to 19.4 ×10⁻⁶ cm/s. Moreover, in series [1] (setting [5]), the maximum plasma concentration entry is “higher” and the oral bioavailability entry was “higher”. In series [2], the bioavailability result is “higher” and the oral exposure entry is on record as “higher”. The permeability entry with Caco-2 cells is recorded as “better”.

With `[2H]C([2H])([2H])Oc1cc(C)c2[nH]ccc2c1CN1CC[C@@H](C2CC2)C[C@H]1c1ccc(C(=O)O)cc1` [4-((2S,4R)-4-cyclopropyl-1-((5-(methoxy-d3)-7-methyl-1H-indol-4-yl)methyl)piperidin-2-yl)benzoic acid], in series [3], the hygroscopic weight gain entry was “about 1.15%”. Besides, the Purity is on record as 97.80% in series [4] (0 day); 97.70% in series [4] (Accelerated: 40°C ± 2°C, 75% ± 5% RH, 1 month); 97.70% in series [4] (Accelerated: 40°C ± 2°C, 75% ± 5% RH, 2 months); 97.90% in series [4] (Accelerated: 40°C ± 2°C, 75% ± 5% RH, 3 months); 97.80% in series [4] (Accelerated: 40°C ± 2°C, 75% ± 5% RH, 6 months); 98.00% in series [4] (Intermediate: 25°C ± 2°C, 60% ± 5% RH, 3 months). Besides, the Purity in series [4] (Intermediate: 25°C ± 2°C, 60% ± 5% RH, 6 months) was found to be 97.80%; in series [4] (Long-term: 2°C - 8°C, 3 months) it was 97.90%; in series [4] (Long-term: 2°C - 8°C, 6 months) it was 97.70%. Also, the stability entry in series [4] (under accelerated, intermediate and long-term conditions, conclusion in words) was “good stability”.

In general, Cmax refers to the maximum level reached in the sampled fluid or tissue. What is called Tmax is the time from dosing to the highest level. By half-life is commonly meant the time in which the quantity being followed falls by half. A lower half-life goes with rapid decline. As to `CCO[C@H]1CCN(Cc2c(OC)cc(C)c3[nH]ccc23)[C@H](c2ccc(C(=O)O)cc2)C1` [LNP023], the bioavailability in series [1] (male, rat, plasma, po, SD rats, i.g. (10 mg/kg)) worked out at 49%. Further, in series [1] (setting [6]), the Cmax was determined as 867 ng/mL, the Tmax was determined as 3.5 h and the half-life is 203 min. Besides, the AUC(0-t) in series [1] (male, rat, po, SD rats, plasma, i.g. (10 mg/kg), read-out: AUC0-24h) worked out at 9870 ng·h/mL.
